The subject of experiment [1] is A549 cells co-cultured with PBMCs. Description: Cytotoxicity of human PBMC upon IFN-γ stimulated A549 cells, 7 days co-culture. As to conditions: increasing doses of oATP. The format is cell-based. As for the experimental part:
FIG. 16A depicts a graph of CD8 activation levels. To better assess the response of CD8 T cells, splenocytes isolated from OT1 mice were stimulated with OVA peptide with and without (positive control) oATP (100 μM) and T cell proliferation determined. […] FIG. 16C depicts photomicroscopy images and a graph of cell growth and survival. Freshly isolated human peripheral blood mononuclear cells (PBMCs, 4×10^5/ml) were applied onto pre-seeded A549 cells (at ˜20% confluency). Cells were cultured in RPMI medium supplemented with interferon gamma (IFNγ) with or without oATP for 7 days. Shown are representative images of A549 cells, and A549 cells co-cultured with PBMCs in the presence and absence of 200 μM oATP. Images were taken on day 7 of the co-culture. […]
(§1) Outcome Measures—In vivo assessment of transplanted lung function was performed by thoracic CT scan imaging and measuring peak airway pressures (PawP) as previously described {Bizargity, #22}. ATP levels were measured from transplanted lung bronchoalveolar lavage fluid (BAL) by bioluminescent detection using Enliten ATP assay system (FF2000, Promega Corporation, Madison, Wis.). […] Immunohistochemistry was performed on frozen lung tissue sections utilizing CD4 and CD8 antibodies and isotype controls and assessed based on the average of 10 high power fields/lung allograft. […]

Experiment [2] concerns OT1 splenocytes (CD8 T cells). The experiment in a line: OT1 splenocytes stimulated with OVA peptide, proliferation. The format is cell-based, mouse. As to conditions: oATP 100 μM. As for the experimental part:
FIG. 16A depicts a graph of CD8 activation levels. To better assess the response of CD8 T cells, splenocytes isolated from OT1 mice were stimulated with OVA peptide with and without (positive control) oATP (100 μM) and T cell proliferation determined. […] FIG. 16C depicts photomicroscopy images and a graph of cell growth and survival. Freshly isolated human peripheral blood mononuclear cells (PBMCs, 4×10^5/ml) were applied onto pre-seeded A549 cells (at ˜20% confluency). Cells were cultured in RPMI medium supplemented with interferon gamma (IFNγ) with or without oATP for 7 days. […]
as §1
To assess the inhibitory actions of oATP upon CD8 cells, a CD8 specific response was analyzed by utilizing OT1 splenocytes stimulated with OVA peptide. […]

Another experiment has as its system islet allografts. Description: Islet allograft pathology, RT-PCR transcripts, insulin and glucagon content. The format is in vivo, mouse. As for the experimental part:
The presence of […] was then analyzed in the graft infiltrate by quantification, via RT-PCR, by assessing intra-graft Tbet and Rorc mRNA expression.

In the next experiment the test system is NOD mice. Description: Diabetes onset in NOD mice (prevention). Format: in vivo, mouse. As for the experimental part: Untreated NOD mice invariably developed diabetes by 15-20 weeks of age (FIGS. 5A-5E). […] Rapamycin (0.1 mg/kg for 10 days) treatment was again synergistic with oATP treatment, inducing a further delay in the onset of diabetes (FIG. 7) with 70% of mice protected from diabetes at 25 weeks, while rapamycin treatment alone was ineffective in delaying diabetes in NOD mice (FIG. 7). This group of experiments confirmed that the ATP/P2X7R axis is indeed relevant to allo- and autoimmune responses in vivo and that P2X7R targeting can be viewed as a novel strategy to curb both responses.
Consequently, NOD mice were treated with oATP.

The test system of experiment [3] is P2X7R−/− mice transplanted with BALB/c hearts. Description: Cardiac transplantation into P2X7R-/- mice. Format: in vivo, mouse. Conditions: P2X7R−/− recipients. The source says:
oATP has been proposed to exert secondary immunomodulatory mechanisms, primarily related to the inhibition of the remaining P2XsR. To verify that the effect on the prevention of cardiac transplant rejection was predominantly due to P2X7R inhibition, the P2X7R−/− C57BL/6 mouse model was used. BALB/c hearts were transplanted into P2X7R−/− mice, and cardiac transplant survival was compared with that of wild-type recipients.

The test system of a further experiment is STAT3. The experiment in a line: Phosphorylation of T-cell signaling molecules in activated CD4+ T cells (Luminex/Milliplex, Western blot). The format is cell-based, mouse. Conditions: 60 minutes after activation. How it is done:
(§2) 60 minutes after anti-CD3-Ig and anti-CD28-Ig mediated activation, cells were lysed and the phosphorylation status of CREB, Erk, Akt, JNK, p38, p70 S6 Kinase, STAT3, and STAT5A/B was assessed using the Millipore Milliplex Cell Signaling Assay. […] Data were confirmed by western blot (FIG. 6D).
(§3) Several key components of T-cell receptor signaling involved in the alloimmune response were examined, and the phosphorylation kinetics following in vitro anti-CD3-Ig/anti-CD28-Ig-mediated CD4+ T-cell activation was evaluated by using the Luminex assay. […] The inventors first confirmed that Colivelin (Col) was able to restore the activation-induced phosphorylation of STAT3 in a dose-dependent manner in oATP-treated CD4+ T cells by Western blotting. […] The effect of oATP and Colivelin on STAT3 phosphorylation and T-cell function was also evaluated following cardiac transplantation.
(A western blot detects proteins with antibodies after separation by electrophoresis.)

Assay in experiment [4]: as above
The format is cell-based, mouse. As for the experimental part:
as §2, §3

A further experiment deals with ABM CD4+ TCR-Tg T cells. Description: Alloantigen-specific ABM CD4+ TCR-Tg T cells, bm12 hearts into C57BL/6 Rag-/- mice. The format is in vivo, mouse. The source says:
To address whether the inhibition of the effector T-cell compartment is related to reduced priming and expansion of alloreactive T cells or to their increased apoptosis, alloreactive-specific T cells were tracked in a transgenic model of cardiac transplantation. Bm12 hearts were transplanted into C57BL/6 Rag−/− mice, and 3×10^6 ABM CD4+ TCR-Tg T cells (specific for bm12 major histocompatibility complex class II antigens) were subsequently adoptively transferred into cardiac transplant recipients.

Entries after “also recorded” stand apart in the source; their conditions may differ.

As for periodate-oxidized ATP [oATP], the “cytolytic activity of PBMC on A549 cells” value in experiment [1] is listed as “remarkable reduction”. Moreover, in experiment [2], the “allo-specific CD8 activation/proliferation” value was “dramatic reduction; also recorded: significant reduction”. Also, the “islet structure, insulin and glucagon staining” value in the experiment on islet allografts (day 14 (oATP), long-term (oATP+rapamycin)) was “preserved insulin staining; also recorded: maintained”. Also, the “reduction of Tbet mRNA expression vs untreated” value with islet allografts (day 14, n=3) is on record as “threefold decrease”. In the experiment with NOD mice (4-week-old NOD mice, daily i.p. for 30 days (early prevention)), the “delay of diabetes onset” value is given as “delays diabetes onset”. Further, the “delay of diabetes onset” value in the experiment with NOD mice (10-week-old NOD mice (late prevention)) is on record as “delay”. Besides, in the experiment on NOD mice (10-week-old NOD mice, oATP 250 μg i.p. daily 14 days, Rapamycin 0.1 mg/kg 10 days), the “mice protected from diabetes at 25 weeks of age” value is given as 50%. For the same substance, in experiment [3], the “ability to prolong cardiac transplant survival” value is “severely altered”. The “activation-induced STAT3 phosphorylation” value in the experiment on STAT3 is given as “reduced level; also recorded: prevented phosphorylation of STAT3; also recorded: significant inhibition”. In addition, the “phosphorylation of JNK/SAPK1, p70/S6, or STAT5” value in experiment [4] was “unaffected”. Besides, the “TCR-Tg T-cell apoptosis” value in the experiment on ABM CD4+ TCR-Tg T cells (4 days following adoptive transfer) is “without substantial differences”. In addition, in the experiment on ABM CD4+ TCR-Tg T cells (mouse, in vivo), the “ABM CD4+ TCR-Tg T-cell proliferation (CFSE dilution)” value is on record as “decrease”; the “numbers of Teffs and Th17 cells within the Tg population” value was “marked reduction”. In the experiment with ABM CD4+ TCR-Tg T cells (seven days posttransplantation), the “numbers of ABM CD4+ TCR-Tg T cells” value is recorded as “reduced numbers”.

These data come from patent US11452781B2, “Method of preventing and treating type 1 diabetes, allograft rejection and lung fibrosis (by targeting the ATP/P2X7R axis)” (CHILDREN'S MEDICAL CENTER CORPORATION, priority 2013, dated 2022).
